Article PMC7408349, “Synthesis and Anticancer Activity of Dimeric Polyether Ionophores” (Biomolecules, 2020)

Key:
[1] = test system: MV-4-11 cells (human acute myeloid leukemia cell line); assay: In vitro antiproliferative activity, SRB assay, MV-4-11; assay type: cell-based; conditions: MV4-11, 72 h incubation, mean ± SD, LAS, MON, SAL as sodium salts
Text: (§1) Each experiment was repeated at least three times separately.

[2] = test system: JIMT-1 cells (human breast cancer cell line); assay: In vitro antiproliferative activity, SRB assay, JIMT-1; assay type: cell-based; conditions: mean ± SD, LAS, MON, SAL as sodium salts, '---' = inactive (undetectable IC50 in tested concentration range)
Text: as §1

[3] = test system: MCF-7 cells (human breast cancer cell line); assay: In vitro antiproliferative activity, SRB assay, MCF-7; assay type: cell-based; conditions: MCF7, 72 h incubation, mean ± SD, LAS, MON, SAL as sodium salts, '---' = inactive (undetectable IC50 in tested concentration range)
Text: as §1

[4] = test system: SKBR-3 cells (human breast cancer cell line); assay: In vitro antiproliferative activity, SRB assay, SKBR-3; assay type: cell-based; conditions: mean ± SD, LAS, MON, SAL as sodium salts
Text: as §1

[5] = test system: LoVo cells (human colon adenocarcinoma, drug-sensitive variant); assay: In vitro antiproliferative activity, SRB assay, LoVo; assay type: cell-based; conditions: 72 h incubation, mean ± SD, LAS, MON, SAL as sodium salts
Text: as §1

[6] = test system: BALB/3T3 cells (normal embryonic fibroblasts); assay: Cytotoxicity on non-tumor cells, SRB assay, BALB/3T3; assay type: cell-based, murine; conditions: Mus musculus, non-tumor cell line, 72 h incubation, mean ± SD, '---' = inactive (undetectable IC50 in tested concentration range)
Text: as §1

[7] = test system: MCF10A cells (normal mammary epithelial cell line); assay: Cytotoxicity on non-tumor cells, SRB assay, MCF10A; assay type: cell-based; conditions: Homo sapiens, MCF-10A, 72 h incubation, mean ± SD, '---' = inactive (undetectable IC50 in tested concentration range)
Text: as §1

[8] = in vitro
[9] = test system: LoVo/DX cells (doxorubicin-resistant human colon adenocarcinoma sub-line, ABCB1 overexpression); assay: In vitro antiproliferative activity, SRB assay, LoVo/DX; conditions: Homo sapiens, LoVo/DX, 72 h, read-out: IC50 LoVo/DX
[10] = as above
[11] = Homo sapiens, JIMT-1, 72 h incubation
[12] = Homo sapiens, SK-BR-3, 72 h incubation
[13] = mouse (BALB/3T3), human (LoVo/DX)

SMILES | IC50 [1] | IC50 [2, 11] | IC50 [3] | IC50 [4, 12] | IC50 [5] | IC50 [6] | IC50 [7] | selectivity ratio at 72 h ([8]; human) | selectivity ratio at 72 h [8, 13] | IC50 [9] | selectivity ratio at 72 h ([10]; human) | selectivity ratio at 72 h [10, 13] | IC50 ([2]; 72 h incubation) | IC50 ([4]; 72 h incubation)
C=C(C)[C@@H]1CC[C@]2(C(=O)NCc3cn([C@H]4C=C[C@]5(O[C@H]([C@@H](CC)C(=O)[C@@H](C)[C@@H](O)[C@H](C)[C@@H]6O[C@@H]([C@@H](CC)C(=O)O)CC[C@@H]6C)[C@@H](C)C[C@H]5C)O[C@@]45CC[C@@](C)([C@H]4CC[C@](O)(CC)[C@H](C)O4)O5)nn3)CC[C@]3(C)[C@H](CC[C@@H]4[C@@]5(C)CC[C@H](O)C(C)(C)[C@@H]5CC[C@]43C)[C@@H]12 [compound 18, Salinomycin-betulinic acid dimer] | 100 ± 90 nM | 7280 ± 3110 nM | 4190 ± 1820 nM | 340 ± 130 nM | 430 ± 130 nM | 4870 ± 1560 nM | 10300 ± 4470 nM | 0.73 | 0.35 | 14100 ± 6900 nM |  |  |  | 
CC[C@@H](C(=O)[C@@H](C)[C@@H](O)[C@H](C)CCc1ccc(C)c(O)c1C(=O)O)[C@H]1O[C@](CC)([C@H]2CC[C@](O)(CC)[C@H](C)O2)C[C@@H]1C [LAS, lasalocid acid] | 1960 ± 650 nM | 5550 nM | 4440 ± 1340 nM | 1370 ± 10 nM | 4050 ± 1020 nM | 9110 ± 3650 nM | 6810 ± 2850 nM |  |  | 4550 ± 270 nM | 1.5 | 2 |  | 
CC[C@@]1([C@@H]2O[C@@H]([C@H]3O[C@@](O)(CO)[C@H](C)C[C@@H]3C)C[C@@H]2C)CC[C@H]([C@]2(C)CC[C@]3(C[C@H](O)[C@@H](C)[C@@H]([C@@H](C)[C@@H](OC)[C@H](C)C(=O)O)O3)O2)O1 [MON, monensin] | 30 ± 20 nM | 1170 ± 140 nM | 510 ± 120 nM | 40 ± 20 nM | 90 ± 60 nM | 1100 ± 240 nM | 870 ± 230 nM | 3.35 | 4.23 | 260 ± 110 nM |  |  |  | 
C=C(C)[C@@H]1CC[C@]2(C(=O)OCc3cn([C@H]4C=C[C@]5(O[C@H]([C@@H](CC)C(=O)[C@@H](C)[C@@H](O)[C@H](C)[C@@H]6O[C@@H]([C@@H](CC)C(=O)O)CC[C@@H]6C)[C@@H](C)C[C@H]5C)O[C@@]45CC[C@@](C)([C@H]4CC[C@](O)(CC)[C@H](C)O4)O5)nn3)CC[C@]3(C)[C@H](CC[C@@H]4[C@@]5(C)CC[C@H](O)C(C)(C)[C@@H]5CC[C@]43C)[C@@H]12 [compound 19, Salinomycin-betulinic acid dimer] | 290 ± 140 nM | 7090 ± 2220 nM | 6870 ± 3280 nM | 600 ± 260 nM | 2660 ± 980 nM | 6220 ± 1440 nM | 7020 ± 2440 nM |  |  |  |  |  |  | 
CC[C@@H](C(=O)[C@@H](C)[C@@H](O)[C@H](C)[C@@H]1O[C@@H]([C@@H](CC)C(=O)O)CC[C@@H]1C)[C@H]1O[C@]2(C=C[C@@H](O)[C@]3(CC[C@@](C)([C@H]4CC[C@](O)(CC)[C@H](C)O4)O3)O2)[C@H](C)C[C@@H]1C [SAL, salinomycin] | 100 ± 30 nM | 2670 nM | 930 ± 330 nM | 270 nM | 250 ± 70 nM | 1550 ± 860 nM | 1280 ± 460 nM | 2.1 | 2.54 | 610 ± 210 nM |  |  |  | 
C=C(C)[C@@H]1CC[C@]2(C(=O)O)CC[C@]3(C)[C@H](CC[C@@H]4[C@@]5(C)CC[C@H](O)C(C)(C)[C@@H]5CC[C@]43C)[C@@H]12 [BET, betulinic acid] | 1420 ± 970 nM | 9900 ± 2320 nM | 12600 ± 1570 nM | 7470 ± 1160 nM | 16500 ± 6560 nM | 84800 ± 10000 nM | 7230 ± 1240 nM |  |  | 8960 ± 1080 nM | 0.81 | 9.47 |  | 
COc1cccc2c1C(=O)c1c(O)c3c(c(O)c1C2=O)C[C@@](O)(C(=O)CO)C[C@@H]3O[C@H]1C[C@H](N)[C@H](O)[C@H](C)O1 [DX, doxorubicin] | 20 ± 4 nM | 400 ± 100 nM | 130 ± 50 nM | 110 ± 10 nM | 110 ± 4 nM | 260 ± 140 nM | 170 ± 30 nM |  |  | 8740 ± 1460 nM | 0.02 | 0.03 |  | 
N.N.[Cl][Pt][Cl] [CIS, cisplatin] |  |  |  |  |  |  |  |  |  |  |  |  | 8230 nM | 4170 nM
C=C(C)[C@@H]1CC[C@]2(C(=O)O)CC[C@]3(C)[C@H](CC[C@@H]4[C@@]5(C)CC[C@H](OC(=O)OCc6cn([C@H]7C=C[C@]8(O[C@H]([C@@H](CC)C(=O)[C@@H](C)[C@@H](O)[C@H](C)[C@@H]9O[C@@H]([C@@H](CC)C(=O)O)CC[C@@H]9C)[C@@H](C)C[C@H]8C)O[C@@]78CC[C@@](C)([C@H]7CC[C@](O)(CC)[C@H](C)O7)O8)nn6)C(C)(C)[C@@H]5CC[C@]43C)[C@@H]12 [compound 20, Salinomycin-betulinic acid dimer] | 1920 ± 820 nM | 14700 ± 4880 nM | 21700 ± 5280 nM | 3250 ± 240 nM | 5180 ± 720 nM | 18700 ± 4570 nM | 30300 ± 13800 nM | 0.62 | 0.39 | 48600 ± 11800 nM |  |  |  | 
